Measurements: US8685658B2, “Compositions and methods for the treatment of diseases associated with aberrant cilia assembly and regulation” (Fox Chase Cancer Center, priority 2006, dated 2014)

Experiments:
[1] = biological target: AurB (Homo sapiens, UniProt Q96GD4); conditions: cited from earlier work
[2] = test system: hTERT-RPE1 cells; test: serum-induced ciliary disassembly in ciliated hTERT-RPE1 cells; format: cell-based
Experimental: hTERT-RPE1 cells were grown in DMEM with 10% fetal bovine serum (FBS). For analysis of ciliary disassembly, cells were plated at 30% confluence in plates containing glass cover slips, and starved for 48 hours (in Opti-MEM or regular DMEM, without added serum) to induce cilia formation, followed by treatments described hereinbelow. For siRNA treatment, cells were initially plated in DMEM/10% FBS in plates containing cover slips, and 12 hours later siRNA transfection was performed in Opti-MEM with Oligofectamine (Invitrogen) according to manufacturer recommendations, and fixed 48 hours after transfection, following treatments indicated in Results. The remaining cells on plate were lysed, then either directly analyzed by Western blot analysis, or used for immunoprecipitation (IP)-kinase reaction to measure AurA activity.
Cells were fixed with 4% paraformaldehyde (10 min) then methanol (5 min), permeabilized with 1% Triton-X100 in PBS, blocked in 1×PBS, 3% BSA, and incubated with antibodies using standard protocols. Primary antibodies included rabbit polyclonal anti-Aurora A and anti-phospho-AuroraA/T288, (Cell Signaling), mouse mAb anti-HEF1 (14A11), polyclonal anti-γ-tubulin (Sigma), anti-α-tubulin mAb (Sigma), anti-acetylated α-tubulin mAb (clone 6-11B-1, Sigma, and clone K(Ac)40 Biomol), anti-IFT88 and anti-IFT20 (gifts of G. Pazour), mouse anti-glutamylated tubulin (Sigma), and anti-HDAC6 (Upstate). Secondary antibodies labeled with Alexa-488, Alexa-568, and Alexa-633, and TOTO-3 dye to stain DNA, were from Molecular Probes/Invitrogen. DNA was co-stained in some experiments by propidium iodine (Sigma) or Draq5 (Alexis), Confocal microscopy was performed using a Radiance 2000 laser scanning confocal microscope ((Carl Zeiss, Thornwood, N.Y.) coupled to a Nikon Eclipse E800 upright microscope (Nikon). Statistical analysis of data by one-way ANOVA was performed using GraphPad Instat 3.0 (San Diego, Calif.).

[3] = biological target: FGFR1 (Homo sapiens, UniProt P11362); conditions: cited from earlier work
[4] = biological target: T1, AurA (Homo sapiens, UniProt O14965); test: AurA activation and HEF1 phosphorylation in serum-stimulated hTERT-RPE1 cells (Western blot); format: cell-based; conditions: vs DMSO, 2 and 24 hour time points after serum
T1 construct: endogenous AurA immunoprecipitated from mammalian cells; endogenous in cells; host or cells: hTERT-RPE1
T1 sequence (O14965 1-403): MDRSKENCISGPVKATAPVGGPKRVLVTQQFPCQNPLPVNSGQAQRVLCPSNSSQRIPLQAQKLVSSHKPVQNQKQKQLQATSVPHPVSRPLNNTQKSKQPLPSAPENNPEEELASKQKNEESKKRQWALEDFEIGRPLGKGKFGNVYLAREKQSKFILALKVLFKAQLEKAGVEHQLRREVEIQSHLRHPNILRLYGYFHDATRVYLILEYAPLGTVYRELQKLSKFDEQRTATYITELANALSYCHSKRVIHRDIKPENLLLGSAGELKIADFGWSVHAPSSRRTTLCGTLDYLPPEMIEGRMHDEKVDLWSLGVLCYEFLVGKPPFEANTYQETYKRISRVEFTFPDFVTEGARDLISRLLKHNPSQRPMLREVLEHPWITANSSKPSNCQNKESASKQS
Experimental: For microinjection, recombinant glutathione-S-transferase (GST), GST fused AurA mutants T288A and D274N) produced from BL21 (DE3) bacteria were purified using the MicroSpin GST Purification Module (Amersham Biotech.). Purified recombinant AurA was purchased from Upstate; this AurA was pre-activated based on incubation with ATP. […] To prepare lysates for Western blotting and IP, mammalian cells were disrupted by M-PER lysis buffer (Pierce) supplemented with EDTA-free protease inhibitor cocktail (Roche). Lysates used for IP were incubated overnight with antibody at 4° C., subsequently incubated for 2 hours with protein A/G-sepharose (Pierce), washed, and resolved by SDS-PAGE. Western blotting was performed using standard procedures and proteins visualized using the West-Pico system (Pierce). Antibodies used included mouse monoclonal antibody (mAb) anti-HEF1 2G9 (Pugacheva and Golemis, 2005), anti-α-tubulin mAb (Sigma), anti-AurA (BD Bioscience) for Western blotting, anti-AurA rabbit polyclonal (Cell Signaling) for IP, anti-Phospho-AurA/T288 (BioLegend), anti-Phospho-AurA/T288 (Cell Signaling), anti-HDAC6 rabbit polyclonal (Upstate; 1:5000), anti-HDAC2 rabbit polyclonal (Invitrogen) and mAb anti-β-actin (AC15, Sigma), anti-IFT88 and anti-IFT20. Secondary horseradish peroxidase (HRP)-conjugated antibodies were from Amersham Biotech. […]

[5] = biological target: T2, AurA-HDAC6 (Homo sapiens, UniProt O14965); test: AurA-HDAC6 coimmunoprecipitation from hTERT-RPE1 cells; format: cell-based; conditions: pre-treatment of cells with inhibitor
T2 construct: endogenous in cells; host or cells: hTERT-RPE1
T2 sequence (O14965 1-403): T1 sequence (O14965 1-403)
T2 sequence (Q9UBN7 1-1215 partner): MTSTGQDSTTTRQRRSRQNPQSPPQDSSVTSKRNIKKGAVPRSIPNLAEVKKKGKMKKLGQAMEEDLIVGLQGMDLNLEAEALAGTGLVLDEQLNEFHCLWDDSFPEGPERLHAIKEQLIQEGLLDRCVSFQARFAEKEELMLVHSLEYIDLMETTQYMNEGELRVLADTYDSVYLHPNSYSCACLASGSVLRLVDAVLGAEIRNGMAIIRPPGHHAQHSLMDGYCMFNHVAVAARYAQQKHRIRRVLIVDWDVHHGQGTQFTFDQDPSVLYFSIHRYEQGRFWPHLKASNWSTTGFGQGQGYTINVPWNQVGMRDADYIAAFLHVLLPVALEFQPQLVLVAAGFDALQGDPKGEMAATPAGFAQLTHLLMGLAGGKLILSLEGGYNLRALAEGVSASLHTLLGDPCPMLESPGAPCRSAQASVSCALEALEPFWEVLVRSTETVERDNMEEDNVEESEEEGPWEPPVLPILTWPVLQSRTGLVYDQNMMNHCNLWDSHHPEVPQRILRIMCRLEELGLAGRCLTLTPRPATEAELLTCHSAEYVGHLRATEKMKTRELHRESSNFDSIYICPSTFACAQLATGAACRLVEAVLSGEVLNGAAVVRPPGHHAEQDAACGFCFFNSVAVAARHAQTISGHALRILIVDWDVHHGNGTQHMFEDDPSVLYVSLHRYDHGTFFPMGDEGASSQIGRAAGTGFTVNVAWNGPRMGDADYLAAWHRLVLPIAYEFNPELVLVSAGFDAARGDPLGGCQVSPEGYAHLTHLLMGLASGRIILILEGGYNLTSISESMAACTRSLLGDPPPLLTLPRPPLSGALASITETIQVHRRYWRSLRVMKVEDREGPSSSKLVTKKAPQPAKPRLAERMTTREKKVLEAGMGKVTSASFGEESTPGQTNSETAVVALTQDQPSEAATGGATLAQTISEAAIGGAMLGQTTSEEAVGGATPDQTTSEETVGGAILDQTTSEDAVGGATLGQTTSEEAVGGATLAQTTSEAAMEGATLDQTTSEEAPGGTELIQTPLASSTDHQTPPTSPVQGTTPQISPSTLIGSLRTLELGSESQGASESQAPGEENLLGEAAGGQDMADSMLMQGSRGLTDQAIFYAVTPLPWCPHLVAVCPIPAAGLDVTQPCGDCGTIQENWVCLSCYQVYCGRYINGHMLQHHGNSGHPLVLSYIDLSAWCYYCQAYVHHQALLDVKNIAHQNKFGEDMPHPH
Experimental: For microinjection, recombinant glutathione-S-transferase (GST), GST fused AurA mutants T288A and D274N) produced from BL21 (DE3) bacteria were purified using the MicroSpin GST Purification Module (Amersham Biotech.). Purified recombinant AurA was purchased from Upstate; this AurA was pre-activated based on incubation with ATP. […] To prepare lysates for Western blotting and IP, mammalian cells were disrupted by M-PER lysis buffer (Pierce) supplemented with EDTA-free protease inhibitor cocktail (Roche). Lysates used for IP were incubated overnight with antibody at 4° C., subsequently incubated for 2 hours with protein A/G-sepharose (Pierce), washed, and resolved by SDS-PAGE. Western blotting was performed using standard procedures and proteins visualized using the West-Pico system (Pierce). Antibodies used included mouse monoclonal antibody (mAb) anti-HEF1 2G9 (Pugacheva and Golemis, 2005), anti-α-tubulin mAb (Sigma), anti-AurA (BD Bioscience) for Western blotting, anti-AurA rabbit polyclonal (Cell Signaling) for IP, anti-Phospho-AurA/T288 (BioLegend), anti-Phospho-AurA/T288 (Cell Signaling), anti-HDAC6 rabbit polyclonal (Upstate; 1:5000), anti-HDAC2 rabbit polyclonal (Invitrogen) and mAb anti-β-actin (AC15, Sigma), anti-IFT88 and anti-IFT20. Secondary horseradish peroxidase (HRP)-conjugated antibodies were from Amersham Biotech.

FGFR1, sequence (P11362 22-822, species assumed): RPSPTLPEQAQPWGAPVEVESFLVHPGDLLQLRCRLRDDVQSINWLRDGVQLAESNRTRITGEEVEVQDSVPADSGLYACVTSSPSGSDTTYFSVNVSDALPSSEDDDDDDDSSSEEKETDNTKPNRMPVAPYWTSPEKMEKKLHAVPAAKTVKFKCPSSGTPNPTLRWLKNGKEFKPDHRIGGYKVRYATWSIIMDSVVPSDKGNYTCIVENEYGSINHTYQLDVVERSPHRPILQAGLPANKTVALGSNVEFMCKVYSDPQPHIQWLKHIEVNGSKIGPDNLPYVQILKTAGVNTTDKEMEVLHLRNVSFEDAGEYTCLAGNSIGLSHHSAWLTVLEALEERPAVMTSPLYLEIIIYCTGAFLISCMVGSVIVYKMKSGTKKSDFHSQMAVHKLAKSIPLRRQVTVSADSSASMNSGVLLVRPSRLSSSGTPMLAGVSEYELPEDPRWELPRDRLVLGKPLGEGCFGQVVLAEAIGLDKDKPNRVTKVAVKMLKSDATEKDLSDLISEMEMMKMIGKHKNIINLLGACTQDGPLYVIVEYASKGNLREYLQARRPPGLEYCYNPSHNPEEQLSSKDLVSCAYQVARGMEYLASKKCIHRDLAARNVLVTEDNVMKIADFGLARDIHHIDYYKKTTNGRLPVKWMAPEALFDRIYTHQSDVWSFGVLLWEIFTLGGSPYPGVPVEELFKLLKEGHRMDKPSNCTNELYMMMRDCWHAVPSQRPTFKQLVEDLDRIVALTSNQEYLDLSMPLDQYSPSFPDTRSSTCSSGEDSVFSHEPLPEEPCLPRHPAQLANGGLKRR
AurB, sequence (Q96GD4 whole entry): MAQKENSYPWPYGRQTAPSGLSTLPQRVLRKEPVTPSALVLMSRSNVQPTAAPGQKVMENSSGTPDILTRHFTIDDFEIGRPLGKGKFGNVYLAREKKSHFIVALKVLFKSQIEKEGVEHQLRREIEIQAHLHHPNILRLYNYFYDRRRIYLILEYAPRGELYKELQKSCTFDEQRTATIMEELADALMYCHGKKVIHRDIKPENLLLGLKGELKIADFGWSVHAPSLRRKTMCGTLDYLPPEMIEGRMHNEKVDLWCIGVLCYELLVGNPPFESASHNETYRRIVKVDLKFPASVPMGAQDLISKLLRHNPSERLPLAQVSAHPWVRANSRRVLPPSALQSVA

HEF1 phosphorylation (115 kDa form) [4]: blocks
appearance of T288-phospho-AurA [4]: blocks appearance
AurA-HDAC6 coimmunoprecipitation [5]: not eliminated
SMILES: CCc1cccc(CC)c1NC(=O)N1Cc2n[nH]c(NC(=O)c3ccc(N4CCN(C)CC4)cc3)c2C1 [PHA-680632]
IC50 [1]: 185 nM
second wave of ciliary disassembly, at the time of mitosis ([2]; 500 nM, 18-24 hours after serum): completely eliminated
disassembly of cilia after serum stimulation ([2]; cells pre-treated for 3 hours with 500 nM, tracked 24 hours post serum): strongly reduced
IC50 [3]: 390 nM
